Measurements reported in patent US8273774B2, “Phenoxypyridinylamide compounds” (AstraZeneca AB, priority 2008, dated 2012).

Each molecule was assayed against recombinant Human Phosphodiesterase B2 (PDE4B2) (Homo sapiens, UniProt Q07343) (assay: Human Phosphodiesterase B2 Radiometric Assay). Details: 0.1 μg/mL recombinant PDE4B2; preincubated at 30 C for 30 min; [3H]cyclic AMP 8 nM, stopped after 20 min; yttrium silicate SPA beads; read-out: PDE4B2 pIC50 (converted).
Type: biochemical
Summary of the method: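 Compounds preincubated 30 min at 30 C with 0.1 μg/mL recombinant PDE4B2 in 50 mM HEPES pH 7.5, 8.3 mM MgCl2, 1.7 mM EGTA, 0.01% Brij 35.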

recombinant Human Phosphodiesterase B2 (PDE4B2), sequence (Q07343 1-564 isoform Q07343-2): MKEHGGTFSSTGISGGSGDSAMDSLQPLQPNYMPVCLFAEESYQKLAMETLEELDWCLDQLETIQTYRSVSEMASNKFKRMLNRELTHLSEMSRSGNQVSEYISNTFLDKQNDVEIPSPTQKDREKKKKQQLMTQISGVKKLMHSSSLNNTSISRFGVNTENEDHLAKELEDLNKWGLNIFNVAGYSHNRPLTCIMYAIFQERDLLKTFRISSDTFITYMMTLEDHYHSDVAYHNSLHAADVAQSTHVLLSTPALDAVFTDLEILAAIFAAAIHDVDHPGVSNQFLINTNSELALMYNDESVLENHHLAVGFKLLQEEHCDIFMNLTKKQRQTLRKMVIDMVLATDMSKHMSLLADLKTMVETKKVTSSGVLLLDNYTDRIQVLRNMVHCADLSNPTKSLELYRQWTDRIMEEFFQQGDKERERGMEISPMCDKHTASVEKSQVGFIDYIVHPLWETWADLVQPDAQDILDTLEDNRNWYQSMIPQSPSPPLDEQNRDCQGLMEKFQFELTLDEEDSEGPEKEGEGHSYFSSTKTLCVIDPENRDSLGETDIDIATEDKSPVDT

Row | Structure (SMILES) | IC50 [pM]
1 | Cc1cc(C)n2ncc(C(=O)N[C@H]3CC[C@@H](NC(=O)c4cc(F)cnc4Oc4cccc(-c5ccc(CN6CCN(CC(=O)NC(C)C)CC6)cc5CN5CCOCC5)c4)CC3)c2n1 [Example 178, N-((1s,4s)-4-(5-Fluoro-2-(4′-((4-(2-(isopropylamino)-2-oxoethyl)piperazin-1-yl)methyl)-2′-(morpholinomethyl)biphenyl-3-yloxy)nicotinamido)cyclohexyl)-5,7-dimethylpyrazolo[1,5-a]pyrimidine-3-carboxamide] | 39.8
2 | Cc1cc(C)n2nc(C(=O)N[C@H]3CC[C@@H](NC(=O)c4cc(F)cnc4Oc4cccc(-c5ccc(CN6CCCN(CCO)CC6)cc5CN5CCOC[C@@H]5C)c4)CC3)cc2n1 [Example 179, N-((1s,4s)-4-(5-Fluoro-2-(4′-((4-(2-hydroxyethyl)-1,4-diazepan-1-yl)methyl)-2′-(((S)-3-methylmorpholino)methyl)biphenyl-3-yloxy)nicotinamido)cyclohexyl)-5,7-dimethylpyrazolo[1,5-a]pyrimidine-2-carboxamide] | 50.1
3 | C[C@H]1COCCN1Cc1cc(CN2CCCN(CCO)CC2)ccc1-c1cccc(Oc2ncc(F)cc2C(=O)N[C@H]2CC[C@@H](NC(=O)c3cccc4[nH]cnc34)CC2)c1 [Example 180, N-((1s,4s)-4-(5-Fluoro-2-(4′-((4-(2-hydroxyethyl)-1,4-diazepan-1-yl)methyl)-2′-(((S)-3-methylmorpholino)methyl)biphenyl-3-yloxy)nicotinamido)cyclohexyl)-1H-benzo[d]imidazole-4-carboxamide] | 15.8
4 | CCCN1CCN(Cc2ccc(-c3cccc(Oc4ncc(F)cc4C(=O)N[C@H]4CC[C@@H](NC(=O)c5cc(C)n(C)n5)CC4)c3)c(CN3CCOCC3)c2)CC1 [Example 181, N-((1s,4s)-4-(1,5-Dimethyl-1H-pyrazole-3-carboxamido)cyclohexyl)-5-fluoro-2-(2′-(morpholinomethyl)-4′-((4-propylpiperazin-1-yl)methyl)biphenyl-3-yloxy)nicotinamide] | 251
5 | Cc1cc(C)n2ncc(C(=O)N[C@H]3CC[C@@H](NC(=O)c4cc(F)cnc4Oc4cccc(-c5ccc(CN6CCCN(CCO)CC6)cc5CN5CCSCC5)c4)CC3)c2n1 [Example 182, N-((1s,4s)-4-(5-Fluoro-2-(4′-((4(2-hydroxyethyl)-1,4-diazepan-1-yl)methyl)-2′-(thiomorpholinomethyl)biphenyl-3-yloxy)nicotinamido)cyclohexyl)-5,7-dimethylpyrazolo[1,5-a]pyrimidine-3-carboxamide] | 39.8
6 | Cc1cc(C(=O)N[C@H]2CC[C@@H](NC(=O)c3cc(F)cnc3Oc3cccc(-c4ccc(CN5CCN(C(C)C)CC5)cc4CN4CCOCC4)c3)CC2)nn1C [Example 183, N-((1s,4s)-4-(1,5-Dimethyl-1H-pyrazole-3-carboxamido)cyclohexyl)-5-fluoro-2-(4′-((4-isopropylpiperazin-1-yl)methyl)-2′-(morpholinomethyl)biphenyl-3-yloxy)nicotinamide] | 200
7 | Cc1csc(C(=O)N[C@H]2CC[C@@H](NC(=O)c3cc(F)cnc3Oc3cccc(-c4ccc(CCN5CCNCC5)cc4)c3)CC2)n1 [Example 184, N-((1s,4s)-4-(5-Fluoro-2-(4′-(2-(piperazin-1-yl)ethyl)biphenyl-3-yloxy)nicotinamido)cyclohexyl)-4-methylthiazole-2-carboxamide] | 39.8
8 | Cc1cccc2nc(C(=O)N[C@H]3CC[C@@H](NC(=O)c4cc(F)cnc4Oc4cccc(-c5ccc(CN6CCCN(C)CC6)cc5CN5CCOCC5)c4)CC3)cn12 [Example 185, N-((1s,4s)-4-(5-Fluoro-2-(4′-((4-methyl-1,4-diazepan-1-yl)methyl)-2′-(morpholinomethyl)biphenyl-3-yloxy)nicotinamido)cyclohexyl)-5-methylimidazo[1,2-a]pyridine-2-carboxamide] | 20
9 | O=C(N[C@H]1CC[C@@H](NC(=O)c2cc(F)cnc2Oc2cccc(-c3ccc(CCN4CCNCC4)cc3)c2)CC1)c1cnc2ccccc2n1 [Example 186, N-((1s,4s)-4-(5-Fluoro-2-(4′-(2-(piperazin-1-yl)ethyl)biphenyl-3-yloxy)nicotinamido)cyclohexyl)quinoxaline-2-carboxamide] | 39.8
10 | O=C(NC1CCC(NC(=O)c2cc(F)cnc2Oc2cccc(-c3ccc(CCCN4CCNCC4)cc3)c2)CC1)c1nc(CO)cs1 (stereo not drawn) [Example 187, N-((1s,4s)-4-(5-Fluoro-2-(4′-(3-(piperazin-1-yl)propyl)biphenyl-3-yloxy)nicotinamido)cyclohexyl)-4-(hydroxymethyl)thiazole-2-carboxamide] | 200
11 | C[C@@H]1CN(Cc2ccc(-c3cccc(Oc4ncc(F)cc4C(=O)N[C@H]4CC[C@@H](NC(=O)c5cc6n(n5)CCCC6)CC4)c3)c(CN3CCSCC3)c2)C[C@H](C)N1 [Example 188, N-((1s,4s)-4-(2-(4′-(((3S,5R)-3,5-dimethylpiperazin-1-yl)methyl)-2′-(thiomorpholinomethyl)biphenyl-3-yloxy)-5-fluoronicotinamido)cyclohexyl)-4,5,6,7-tetrahydropyrazolo[1,5-a]pyridine-2-carboxamide] | 20
12 | Cc1nc(C(=O)N[C@H]2CC[C@@H](NC(=O)c3cc(F)cnc3Oc3cccc(-c4ccc(CN5C[C@@H](C)N[C@@H](C)C5)cc4CN4CCSCC4)c3)CC2)cs1 [Example 189, N-((1s,4s)-4-(2-(4′-(((3S,5R)-3,5-dimethylpiperazin-1-yl)methyl)-2′-(thiomorpholinomethyl)biphenyl-3-yloxy)-5-fluoronicotinamido)cyclohexyl)-2-methylthiazole-4-carboxamide] | 15.8
13 | CC(C)c1nc(C(=O)N[C@H]2CC[C@@H](NC(=O)c3cc(F)cnc3Oc3cccc(-c4ccc(CN5C[C@@H](C)N[C@@H](C)C5)cc4CN4CCOCC4)c3)CC2)cs1 [Example 190, N-((1s,4s)-4-(2-(4′-(((3S,5R)-3,5-dimethylpiperazin-1-yl)methyl)-2′-(morpholinomethyl)biphenyl-3-yloxy)-5-fluoronicotinamido)cyclohexyl)-2-isopropylthiazole-4-carboxamide] | 39.8
14 | C[C@@H]1CN(Cc2ccc(-c3cccc(Oc4ncc(F)cc4C(=O)N[C@H]4CC[C@@H](NC(=O)c5cc(C(F)(F)F)n(C)n5)CC4)c3)c(CN3CCSCC3)c2)C[C@H](C)N1 [Example 191, 2-(4′-(((3S,5R)-3,5-dimethylpiperazin-1-yl)methyl)-2′-(thiomorpholinomethyl)biphenyl-3-yloxy)-5-fluoro-N-((1s,4s)-4-(1-methyl-5-(trifluoromethyl)-1H-pyrazole-3-carboxamido)cyclo-hexyl)nicotinamide] | 20
15 | Cc1csc(C(=O)N[C@H]2CC[C@@H](NC(=O)c3cc(F)cnc3Oc3cccc(-c4ccc(CN5C[C@@H](C)N[C@@H](C)C5)cc4CN4CCSCC4)c3)CC2)n1 [Example 192, N-((1s,4s)-4-(2-(4′-(((3S,5R)-3,5-dimethylpiperazin-1-yl)methyl)-2′-(thiomorpholinomethyl)biphenyl-3-yloxy)-5-fluoronicotinamido)cyclohexyl)-4-methylthiazole-2-carboxamide] | 20
16 | Cc1cc(C)n2ncc(C(=O)N[C@H]3CC[C@@H](NC(=O)c4cc(F)cnc4Oc4cccc(-c5ccc(CN6C[C@@H](C)N[C@@H](C)C6)cc5CN5CCSCC5)c4)CC3)c2n1 [Example 193, N-((1s,4s)-4-(2-(4′-(((3S,5R)-3,5-dimethylpiperazin-1-yl)methyl)-2′-(thiomorpholinomethyl)biphenyl-3-yloxy)-5-fluoronicotinamido)cyclohexyl)-5,7-dimethylpyrazolo[1,5-a]pyrimidine-3-carboxamide] | 25.1
17 | Cc1csc(C(=O)N[C@H]2CC[C@@H](NC(=O)c3cc(F)cnc3Oc3cccc(-c4ccc(CN5C[C@@H](C)N[C@@H](C)C5)cc4CN4CCOC[C@@H]4C)c3)CC2)n1 [Example 194, N-((1s,4s)-4-(2-(4′-(((3S,5R)-3,5-dimethylpiperazin-1-yl)methyl)-2′-(((S)-3-methylmorpholino)methyl)biphenyl-3-yloxy)-5-fluoronicotinamido)cyclohexyl)-4-methylthiazole-2-carboxamide] | 31.6
18 | C[C@@H]1CN(Cc2ccc(-c3cccc(Oc4ncc(F)cc4C(=O)N[C@H]4CC[C@@H](NC(=O)c5cccc6[nH]cnc56)CC4)c3)c(CN3CCOC[C@@H]3C)c2)C[C@H](C)N1 [Example 195, N-((1s,4s)-4-(2-(4′-(((3S,5R)-3,5-dimethylpiperazin-1-yl)methyl)-2′-(((S)-3-methylmorpholino)methyl)biphenyl-3-yloxy)-5-fluoronicotmamido)cyclohexyl)-1H-benzo[d]imidazole-4-carboxamide] | 20
19 | Cc1cc(C)n2ncc(C(=O)N[C@H]3CC[C@@H](NC(=O)c4cc(F)cnc4Oc4cccc(-c5ccc(CN6C[C@@H](C)N[C@@H](C)C6)cc5CN5CCOC[C@@H]5C)c4)CC3)c2n1 [Example 196, N-((1s,4s)-4-(2-(4′-(((3S,5R)-3,5-dimethylpiperazin-1-yl)methyl)-2′-(((S)-3-methylmorpholino)methyl)biphenyl-3-yloxy)-5-fluoronicotinamido)cyclohexyl)-5,7-dimethylpyrazolo[1,5-a]pyrimidine-3-carboxamide] | 25.1
20 | O=C(N[C@H]1CC[C@@H](NC(=O)c2cnn3cccnc23)CC1)c1cc(F)cnc1Oc1cccc(-c2ccc(CN3CCSCC3)cc2CN2CCOCC2)c1 [Example 197, N-((1s,4s)-4-(5-fluoro-2-(2′-(morpholinomethyl)-4′-(thiomorpholinomethyl)biphenyl-3-yloxy)nicotinamido)cyclohexyl)pyrazolo[1,5-a]pyrimidine-3-carboxamide] | 20
21 | Cc1csc(C(=O)N[C@H]2CC[C@@H](NC(=O)c3cc(F)cnc3Oc3cccc(-c4ccc(CN5CCN(CC(=O)NC(C)C)CC5)cc4CN4CCOCC4)c3)CC2)n1 [Example 198, N-((1s,4s)-4-(5-fluoro-2-(4′-((4-(2-(isopropylamino)-2-oxoethyl)piperazin-1-yl)methyl)-2′-(morpholinomethyl)biphenyl-3-yloxy)nicotinamido)cyclohexyl)-4-methylthiazole-2-carboxamide] | 25.1
